Measured values as given in PubChem BioAssay (NCI).
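GI50: concentration for 50% inhibition of growth. Definition used: TGI = concentration required for complete inhibition of growth.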

How the values were obtained:
Test in all cases: growth of human tumour cells (NCI), 384-well format
HOP-62 NSCLC = system: HOP-62 NSCLC
SR leukemia = system: SR leukemia
MDA-MB-231 breast = system: MDA-MB-231 breast
PC-3 prostate = system: PC-3 prostate
SK-MEL-5 melanoma = system: SK-MEL-5 melanoma
HOP-92 NSCLC = system: HOP-92 NSCLC
HT29 colon = system: HT29 colon
SN12C renal = system: SN12C renal
OVCAR-3 ovarian = system: OVCAR-3 ovarian
NCI-H460 NSCLC = system: NCI-H460 NSCLC
UACC-257 melanoma = system: UACC-257 melanoma
IGROV1 ovarian = system: IGROV1 ovarian
NCI-H226 lung = system: NCI-H226 lung
TK-10 renal = system: TK-10 renal
HS 578T breast = system: HS 578T breast
SK-OV-3 ovarian = system: SK-OV-3 ovarian
A498 renal = system: A498 renal
COLO 205 colon = system: COLO 205 colon
OVCAR-4 ovarian = system: OVCAR-4 ovarian
MCF7 breast = system: MCF7 breast
KM12 colon = system: KM12 colon
RXF 393 renal = system: RXF 393 renal
MDA-MB-435 melanoma = system: MDA-MB-435 melanoma
SNB-19 CNS = system: SNB-19 CNS
T-47D breast = system: T-47D breast
NCI-H522 lung = system: NCI-H522 lung
CAKI-1 renal = system: CAKI-1 renal
CCRF-CEM leukemia = system: CCRF-CEM leukemia
NCI-H23 lung = system: NCI-H23 lung
M14 melanoma = system: M14 melanoma
SNB-75 CNS = system: SNB-75 CNS
OVCAR-5 ovarian = system: OVCAR-5 ovarian
SF-539 CNS = system: SF-539 CNS
ACHN renal = system: ACHN renal
SK-MEL-28 melanoma = system: SK-MEL-28 melanoma
HCT-15 colon = system: HCT-15 colon
K-562 leukemia = system: K-562 leukemia
SF-268 CNS = system: SF-268 CNS
RPMI-8226 leukemia = system: RPMI-8226 leukemia
EKVX NSCLC = system: EKVX NSCLC
786-0 renal = system: 786-0 renal
LOX IMVI melanoma = system: LOX IMVI melanoma
MALME-3M melanoma = system: MALME-3M melanoma
A549 NSCLC = system: A549 NSCLC
HCC-2998 colon = system: HCC-2998 colon
SW-620 colon = system: SW-620 colon
HL-60(TB) leukemia = system: HL-60(TB) leukemia
UO-31 renal = system: UO-31 renal
U251 glioblastoma = system: U251 glioblastoma
MDA-MB-468 breast = system: MDA-MB-468 breast
UACC-62 melanoma = system: UACC-62 melanoma
NCI-H322M lung = system: NCI-H322M lung
SF-295 CNS = system: SF-295 CNS
NCI/ADR-RES ovarian = system: NCI/ADR-RES ovarian
DU-145 prostate = system: DU-145 prostate
OVCAR-8 ovarian = system: OVCAR-8 ovarian
MOLT-4 leukemia = system: MOLT-4 leukemia
BT-549 breast = system: BT-549 breast

CN1CCN(c2nc(C3=C(c4c[nH]c5ccccc45)C(=O)NC3=O)c3ccccc3n2)CC1
GI50 (HOP-62 NSCLC): 13.7 µM | TGI (HOP-62 NSCLC): 26.7 µM | GI50 (SR leukemia): 7.06 µM | TGI (SR leukemia): 19.7 µM | GI50 (MDA-MB-231 breast): 15.4 µM | TGI (MDA-MB-231 breast): 30.7 µM | GI50 (PC-3 prostate): 17.5 µM | TGI (PC-3 prostate): 34.3 µM | GI50 (SK-MEL-5 melanoma): 5.58 µM | TGI (SK-MEL-5 melanoma): 18.7 µM | GI50 (HOP-92 NSCLC): 15.8 µM | TGI (HOP-92 NSCLC): 29.4 µM | GI50 (HT29 colon): 13.9 µM | TGI (HT29 colon): 27.4 µM | GI50 (SN12C renal): 13.2 µM | TGI (SN12C renal): 26.3 µM | GI50 (OVCAR-3 ovarian): 15.8 µM | TGI (OVCAR-3 ovarian): 30.7 µM | GI50 (NCI-H460 NSCLC): 18.6 µM | TGI (NCI-H460 NSCLC): 32.6 µM | GI50 (UACC-257 melanoma): 13.6 µM | TGI (UACC-257 melanoma): 26.5 µM | GI50 (IGROV1 ovarian): 18.1 µM | TGI (IGROV1 ovarian): 34.5 µM | GI50 (NCI-H226 lung): 13.4 µM | TGI (NCI-H226 lung): 30.3 µM | GI50 (TK-10 renal): 17.8 µM | TGI (TK-10 renal): 44.2 µM | GI50 (HS 578T breast): 16.8 µM | TGI (HS 578T breast): 30.5 µM | GI50 (SK-OV-3 ovarian): 18.1 µM | TGI (SK-OV-3 ovarian): 38.8 µM | GI50 (A498 renal): 15.3 µM | TGI (A498 renal): 28.6 µM | GI50 (COLO 205 colon): 6.82 µM | TGI (COLO 205 colon): 19.6 µM | GI50 (OVCAR-4 ovarian): 21.8 µM | TGI (OVCAR-4 ovarian): 44.6 µM | GI50 (MCF7 breast): 10.9 µM | TGI (MCF7 breast): 23 µM | GI50 (KM12 colon): 3.7 µM | TGI (KM12 colon): 15.4 µM | GI50 (RXF 393 renal): 15.1 µM | TGI (RXF 393 renal): 28.4 µM | GI50 (MDA-MB-435 melanoma): 16.6 µM | TGI (MDA-MB-435 melanoma): 30.2 µM | GI50 (SNB-19 CNS): 19.8 µM | TGI (SNB-19 CNS): 39.5 µM | GI50 (T-47D breast): 20.2 µM | TGI (T-47D breast): 35.7 µM | GI50 (NCI-H522 lung): 15.4 µM | TGI (NCI-H522 lung): 28.7 µM | GI50 (CAKI-1 renal): 16.3 µM | TGI (CAKI-1 renal): 32.3 µM | GI50 (CCRF-CEM leukemia): 13.1 µM | TGI (CCRF-CEM leukemia): 25.9 µM | GI50 (NCI-H23 lung): 16.1 µM | TGI (NCI-H23 lung): 29.8 µM | GI50 (M14 melanoma): 13.9 µM | TGI (M14 melanoma): 26.8 µM | GI50 (SNB-75 CNS): 19.9 µM | TGI (SNB-75 CNS): 37.3 µM | GI50 (OVCAR-5 ovarian): 20.8 µM | TGI (OVCAR-5 ovarian): 44 µM | GI50 (SF-539 CNS): 15 µM | TGI (SF-539 CNS): 28.3 µM | GI50 (ACHN renal): 15.5 µM | TGI (ACHN renal): 30 µM | GI50 (SK-MEL-28 melanoma): 16.4 µM | TGI (SK-MEL-28 melanoma): 30 µM | GI50 (HCT-15 colon): 12.1 µM | TGI (HCT-15 colon): 28.4 µM | GI50 (K-562 leukemia): 12.2 µM | TGI (K-562 leukemia): 24.7 µM | GI50 (SF-268 CNS): 18.1 µM | TGI (SF-268 CNS): 32.3 µM | GI50 (RPMI-8226 leukemia): 10.1 µM | TGI (RPMI-8226 leukemia): 21.7 µM | GI50 (EKVX NSCLC): 17.8 µM | TGI (EKVX NSCLC): 33.2 µM | GI50 ([…]-0 renal): 13.8 µM | TGI (786-0 renal): 26.9 µM | GI50 (LOX IMVI melanoma): 16.1 µM | TGI (LOX IMVI melanoma): 29.7 µM | GI50 (MALME-3M melanoma): 4.68 µM | TGI (MALME-3M melanoma): 16.2 µM | GI50 (A549 NSCLC): 16.9 µM | TGI (A549 NSCLC): 36.6 µM | GI50 (HCC-2998 colon): 17.7 µM | TGI (HCC-2998 colon): 31.6 µM | GI50 (SW-620 colon): 18.5 µM | TGI (SW-620 colon): 32.6 µM | GI50 (HL-60(TB) leukemia): 15 µM | TGI (HL-60(TB) leukemia): 28.2 µM | GI50 (UO-31 renal): 17.9 µM | TGI (UO-31 renal): 44.9 µM | GI50 (U251 glioblastoma): 16.1 µM | TGI (U251 glioblastoma): 29.9 µM | GI50 (MDA-MB-468 breast): 18.3 µM | TGI (MDA-MB-468 breast): 32.5 µM | GI50 (UACC-62 melanoma): 15.4 µM | TGI (UACC-62 melanoma): 28.8 µM | GI50 (NCI-H322M lung): 16.3 µM | TGI (NCI-H322M lung): 31.2 µM | GI50 (SF-295 CNS): 18.6 µM | TGI (SF-295 CNS): 32.7 µM | GI50 (NCI/ADR-RES ovarian): 19.5 µM | TGI (NCI/ADR-RES ovarian): 41.3 µM | GI50 (DU-145 prostate): 16.3 µM | TGI (DU-145 prostate): 32.6 µM | GI50 (OVCAR-8 ovarian): 13.8 µM | TGI (OVCAR-8 ovarian): 27.6 µM | GI50 (MOLT-4 leukemia): 13.1 µM | TGI (MOLT-4 leukemia): 25.8 µM | GI50 (BT-549 breast): 13.5 µM | TGI (BT-549 breast): 26.3 µM
